Measured values taken from the supplement of paper PMC10307832.

Key:
Experiment in all cases: relative viability (nuclei count vs DMSO), 5 days (fraction); higher = more cells survive
Vemurafenib + Alpelisib = compound: CCCS(=O)(=O)Nc1ccc(F)c(C(=O)c2c[nH]c3ncc(-c4ccc(Cl)cc4)cc23)c1F [Vemurafenib] + Cc1nc(NC(=O)N2CCC[C@H]2C(N)=O)sc1-c1ccnc(C(C)(C)C(F)(F)F)c1 [Alpelisib] (partner 2 µM)
In short: (§1)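 Relative viability is defined as nuclei in treated wells over nuclei in vehicle wells. Duplicate plates were run and medians reported. Lung cancer cell lines in 1536-well plates were dosed by pin tool one day after seeding, with one drug or with a fixed anchor-drug dose plus five library-drug doses (not always all listed) in √10 steps, and nuclei were counted after 5 days.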

Vemurafenib + Olaparib = compound: CCCS(=O)(=O)Nc1ccc(F)c(C(=O)c2c[nH]c3ncc(-c4ccc(Cl)cc4)cc23)c1F [Vemurafenib] + O=C(c1cc(Cc2n[nH]c(=O)c3ccccc23)ccc1F)N1CCN(C(=O)C2CC2)CC1 [Olaparib] (partner 8 µM)
In short: as §1

Alpelisib + Foretinib = compound: Cc1nc(NC(=O)N2CCC[C@H]2C(N)=O)sc1-c1ccnc(C(C)(C)C(F)(F)F)c1 [Alpelisib] + COc1cc2c(Oc3ccc(NC(=O)C4(C(=O)Nc5ccc(F)cc5)CC4)cc3F)ccnc2cc1OCCCN1CCOCC1 [Foretinib] (partner 0.25 µM)
In short: as §1

Alpelisib + Linsitinib = compound: Cc1nc(NC(=O)N2CCC[C@H]2C(N)=O)sc1-c1ccnc(C(C)(C)C(F)(F)F)c1 [Alpelisib] + C[C@]1(O)C[C@@H](c2nc(-c3ccc4ccc(-c5ccccc5)nc4c3)c3c(N)nccn32)C1 [Linsitinib] (partner 1 µM)
In short: as §1

Cell Line | relative viability (Vemurafenib + Alpelisib; first compound 0.03162 µM) | relative viability (Vemurafenib + Alpelisib; first compound 0.1 µM) | relative viability (Vemurafenib + Alpelisib; first compound 0.3162 µM) | relative viability (Vemurafenib + Alpelisib; first compound 1 µM) | relative viability (Vemurafenib + Olaparib; first compound 0.03162 µM) | relative viability (Vemurafenib + Olaparib; first compound 0.1 µM) | relative viability (Vemurafenib + Olaparib; first compound 0.3162 µM) | relative viability (Vemurafenib + Olaparib; first compound 1 µM) | relative viability (Alpelisib + Foretinib; first compound 0.04 µM) | relative viability (Alpelisib + Foretinib; first compound 0.1265 µM) | relative viability (Alpelisib + Foretinib; first compound 0.4 µM) | relative viability (Alpelisib + Foretinib; first compound 1.265 µM) | relative viability (Alpelisib + Foretinib; first compound 4 µM) | relative viability (Alpelisib + Linsitinib; first compound 0.04 µM) | relative viability (Alpelisib + Linsitinib; first compound 0.1265 µM) | relative viability (Alpelisib + Linsitinib; first compound 0.4 µM) | relative viability (Alpelisib + Linsitinib; first compound 1.265 µM) | relative viability (Alpelisib + Linsitinib; first compound 4 µM)
SK-MES-1 | 0.829 | 0.574 | 0.723 | 0.776 | 0.623 | 0.576 | 0.777 | 0.688 | 0.799 | 0.864 | 0.904 | 0.809 | 0.525 | 1.13 | 1.04 | 1.22 | 0.939 | 0.99
NCI-H441 | 0.791 | 0.741 |  | 0.534 | 0.512 | 0.597 | 0.556 | 0.536 | 0.891 | 0.844 | 0.786 | 0.724 | 0.566 | 0.734 | 0.403 | 0.698 | 0.524 | 0.492
HCC-78 | 0.351 | 0.249 | 0.663 | 0.361 | 0.73 | 0.784 | 1.13 | 0.881 | 0.495 | 0.426 | 0.493 | 0.353 | 0.366 | 0.448 | 0.477 | 0.601 | 0.42 | 0.345
